Assay results from ChEMBL document CHEMBL3991601, “The target landscape of clinical kinase drugs” (Science, 2017).
Calls of active or inactive are those of the source. Rule as the data show it, for most assays here: actives have a measured Kd and inactives only a lower limit.

Tests used:
[1] = target: Tyrosine-protein kinase ABL2 (Homo sapiens, UniProt P42684)
[2] = target: Cyclin-dependent kinase 7 (Homo sapiens, UniProt P50613)
[3] = target: Tyrosine-protein kinase CSK (Homo sapiens, UniProt P41240)
[4] = target: Casein kinase I isoform delta (Homo sapiens, UniProt P48730)
[5] = target: Casein kinase I isoform gamma-1 (Homo sapiens, UniProt Q9HCP0)
[6] = target: Deoxycytidine kinase (Homo sapiens, UniProt P27707)
[7] = target: Fibroblast growth factor receptor 1 (Homo sapiens, UniProt P11362)
[8] = target: Putative heat shock protein HSP 90-beta 2 (Homo sapiens, UniProt Q58FF8)
[9] = target: Inosine-5'-monophosphate dehydrogenase 2 (Homo sapiens, UniProt P12268)
[10] = target: Mitogen-activated protein kinase kinase kinase kinase 5 (Homo sapiens, UniProt Q9Y4K4)
[11] = target: T1, Mitogen-activated protein kinase 15 (Homo sapiens, UniProt Q8TD08)
T1 sequence (Q8TD08 whole entry): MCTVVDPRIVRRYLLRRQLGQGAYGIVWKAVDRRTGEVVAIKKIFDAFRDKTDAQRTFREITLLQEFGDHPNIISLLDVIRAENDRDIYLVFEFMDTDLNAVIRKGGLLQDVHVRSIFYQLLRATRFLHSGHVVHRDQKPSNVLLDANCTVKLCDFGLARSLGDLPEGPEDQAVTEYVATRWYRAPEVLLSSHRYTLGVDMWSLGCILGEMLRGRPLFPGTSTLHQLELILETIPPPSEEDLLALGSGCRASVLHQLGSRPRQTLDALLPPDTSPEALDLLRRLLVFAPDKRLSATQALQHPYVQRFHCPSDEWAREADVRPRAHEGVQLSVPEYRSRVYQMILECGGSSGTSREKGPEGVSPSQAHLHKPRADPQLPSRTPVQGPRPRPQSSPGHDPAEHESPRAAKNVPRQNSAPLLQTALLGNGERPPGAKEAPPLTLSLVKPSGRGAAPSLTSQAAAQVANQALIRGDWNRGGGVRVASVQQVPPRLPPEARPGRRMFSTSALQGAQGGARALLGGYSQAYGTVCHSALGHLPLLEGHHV

[12] = target: S-adenosylmethionine synthase isoform type-2 (Homo sapiens, UniProt P31153)
[13] = target: T2, NUAK family SNF1-like kinase 2 (Homo sapiens, UniProt Q9H093)
T2 sequence (Q9H093 whole entry): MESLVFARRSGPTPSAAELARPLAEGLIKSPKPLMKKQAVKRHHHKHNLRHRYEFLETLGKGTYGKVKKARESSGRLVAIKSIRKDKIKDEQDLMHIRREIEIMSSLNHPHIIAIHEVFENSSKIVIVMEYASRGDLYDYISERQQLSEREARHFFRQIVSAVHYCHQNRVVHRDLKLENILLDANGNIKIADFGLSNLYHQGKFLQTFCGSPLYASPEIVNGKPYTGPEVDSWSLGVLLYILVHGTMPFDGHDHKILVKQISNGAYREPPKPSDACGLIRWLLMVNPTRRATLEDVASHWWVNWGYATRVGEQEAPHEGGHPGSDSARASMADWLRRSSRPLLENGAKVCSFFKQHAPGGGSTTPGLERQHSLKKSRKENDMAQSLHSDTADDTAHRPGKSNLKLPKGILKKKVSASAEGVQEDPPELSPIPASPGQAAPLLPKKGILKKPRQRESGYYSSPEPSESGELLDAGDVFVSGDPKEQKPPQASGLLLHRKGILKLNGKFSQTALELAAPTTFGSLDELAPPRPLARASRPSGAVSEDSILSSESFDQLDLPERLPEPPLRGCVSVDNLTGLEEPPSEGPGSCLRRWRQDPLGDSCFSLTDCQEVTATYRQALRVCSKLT

[14] = target: Receptor-interacting serine/threonine-protein kinase 2 (Homo sapiens, UniProt O43353)
[15] = target: Ribosomal protein S6 kinase alpha-4 (Homo sapiens, UniProt O75676)
[16] = target: Ribosomal protein S6 kinase beta-1 (Homo sapiens, UniProt P23443)
[17] = target: TRAF2 and NCK-interacting protein kinase (Homo sapiens, UniProt Q9UKE5)
[18] = target: Activated CDC42 kinase 1 (Homo sapiens, UniProt Q07912)
[19] = target: Non-receptor tyrosine-protein kinase TYK2 (Homo sapiens, UniProt P29597)
[20] = target: Protein kinase C theta type (Homo sapiens, UniProt Q04759)
Also: in the data inactive means no Kd found up to 30 µM.

Sequence of Casein kinase I isoform delta (P48730 whole entry, canonical isoform): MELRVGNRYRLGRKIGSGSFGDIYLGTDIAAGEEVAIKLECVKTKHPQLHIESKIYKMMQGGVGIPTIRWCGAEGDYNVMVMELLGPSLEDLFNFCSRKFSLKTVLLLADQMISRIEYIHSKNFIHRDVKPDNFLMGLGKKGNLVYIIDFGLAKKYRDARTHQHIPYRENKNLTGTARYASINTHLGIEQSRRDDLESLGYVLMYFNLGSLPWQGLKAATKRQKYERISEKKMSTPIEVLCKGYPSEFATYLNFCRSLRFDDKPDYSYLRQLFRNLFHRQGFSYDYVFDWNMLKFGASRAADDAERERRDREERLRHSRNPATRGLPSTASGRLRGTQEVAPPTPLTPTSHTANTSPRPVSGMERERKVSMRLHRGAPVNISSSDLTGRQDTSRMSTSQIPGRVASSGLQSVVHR
Sequence of Activated CDC42 kinase 1 (Q07912 whole entry): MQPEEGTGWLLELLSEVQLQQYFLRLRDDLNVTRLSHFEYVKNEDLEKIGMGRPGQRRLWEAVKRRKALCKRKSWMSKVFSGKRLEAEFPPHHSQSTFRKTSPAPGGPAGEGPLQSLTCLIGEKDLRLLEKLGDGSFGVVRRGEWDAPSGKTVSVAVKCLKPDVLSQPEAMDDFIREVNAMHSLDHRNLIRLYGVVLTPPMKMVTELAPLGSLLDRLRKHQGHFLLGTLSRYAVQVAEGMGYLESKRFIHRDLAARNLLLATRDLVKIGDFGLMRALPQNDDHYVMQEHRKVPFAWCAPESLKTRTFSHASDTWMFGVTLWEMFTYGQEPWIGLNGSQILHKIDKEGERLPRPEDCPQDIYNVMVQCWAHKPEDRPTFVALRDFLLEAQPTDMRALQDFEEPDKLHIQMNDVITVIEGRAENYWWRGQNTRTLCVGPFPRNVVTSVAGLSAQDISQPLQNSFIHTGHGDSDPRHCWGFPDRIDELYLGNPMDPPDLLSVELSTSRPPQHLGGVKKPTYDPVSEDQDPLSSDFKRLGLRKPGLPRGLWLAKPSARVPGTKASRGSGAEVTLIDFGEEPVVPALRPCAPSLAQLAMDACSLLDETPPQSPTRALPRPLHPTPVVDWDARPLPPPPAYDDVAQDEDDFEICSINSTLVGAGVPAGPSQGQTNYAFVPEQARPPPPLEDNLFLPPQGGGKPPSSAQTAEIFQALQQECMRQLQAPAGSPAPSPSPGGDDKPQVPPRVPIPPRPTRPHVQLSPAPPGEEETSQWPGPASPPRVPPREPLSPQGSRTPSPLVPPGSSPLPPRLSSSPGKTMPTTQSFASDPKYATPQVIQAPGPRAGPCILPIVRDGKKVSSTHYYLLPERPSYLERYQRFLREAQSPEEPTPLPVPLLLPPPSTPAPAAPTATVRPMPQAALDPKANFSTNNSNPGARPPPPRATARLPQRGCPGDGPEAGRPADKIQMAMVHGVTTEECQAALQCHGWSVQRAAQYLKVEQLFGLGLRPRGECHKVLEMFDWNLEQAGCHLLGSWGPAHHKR
Sequence of Cyclin-dependent kinase 7 (P50613 whole entry): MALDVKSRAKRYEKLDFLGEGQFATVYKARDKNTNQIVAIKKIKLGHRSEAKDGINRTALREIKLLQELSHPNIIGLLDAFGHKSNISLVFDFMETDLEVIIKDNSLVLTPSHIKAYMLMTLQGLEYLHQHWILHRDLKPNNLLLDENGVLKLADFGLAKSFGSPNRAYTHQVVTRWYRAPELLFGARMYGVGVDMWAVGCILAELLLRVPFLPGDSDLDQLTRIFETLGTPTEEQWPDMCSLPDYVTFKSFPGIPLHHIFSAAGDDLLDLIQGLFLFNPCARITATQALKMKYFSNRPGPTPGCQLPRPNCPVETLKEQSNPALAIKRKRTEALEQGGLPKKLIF
Sequence of Fibroblast growth factor receptor 1 (P11362 whole entry): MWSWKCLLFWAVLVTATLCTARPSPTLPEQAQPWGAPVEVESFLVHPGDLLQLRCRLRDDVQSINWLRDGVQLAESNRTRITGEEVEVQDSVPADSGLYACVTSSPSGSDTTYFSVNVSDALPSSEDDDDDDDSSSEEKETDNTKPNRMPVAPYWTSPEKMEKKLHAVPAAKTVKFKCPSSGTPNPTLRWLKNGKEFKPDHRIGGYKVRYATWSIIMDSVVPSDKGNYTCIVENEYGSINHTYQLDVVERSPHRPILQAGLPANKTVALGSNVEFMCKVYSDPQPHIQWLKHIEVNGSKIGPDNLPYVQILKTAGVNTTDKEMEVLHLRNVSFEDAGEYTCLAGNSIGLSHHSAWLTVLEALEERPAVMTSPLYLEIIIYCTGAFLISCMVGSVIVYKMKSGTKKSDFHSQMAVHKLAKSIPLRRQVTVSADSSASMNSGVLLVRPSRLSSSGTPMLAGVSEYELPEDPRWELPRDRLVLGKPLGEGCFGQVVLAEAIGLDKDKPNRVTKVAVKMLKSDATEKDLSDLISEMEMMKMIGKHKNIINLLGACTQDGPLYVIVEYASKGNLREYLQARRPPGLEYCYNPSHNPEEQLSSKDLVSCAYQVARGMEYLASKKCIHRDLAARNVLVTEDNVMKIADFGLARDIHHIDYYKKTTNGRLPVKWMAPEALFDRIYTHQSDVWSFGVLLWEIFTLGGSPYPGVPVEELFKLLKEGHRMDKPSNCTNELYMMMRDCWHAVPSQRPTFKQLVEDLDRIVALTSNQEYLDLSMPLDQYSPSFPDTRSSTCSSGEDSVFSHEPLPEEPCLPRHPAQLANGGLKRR
Sequence of TRAF2 and NCK-interacting protein kinase (Q9UKE5 whole entry): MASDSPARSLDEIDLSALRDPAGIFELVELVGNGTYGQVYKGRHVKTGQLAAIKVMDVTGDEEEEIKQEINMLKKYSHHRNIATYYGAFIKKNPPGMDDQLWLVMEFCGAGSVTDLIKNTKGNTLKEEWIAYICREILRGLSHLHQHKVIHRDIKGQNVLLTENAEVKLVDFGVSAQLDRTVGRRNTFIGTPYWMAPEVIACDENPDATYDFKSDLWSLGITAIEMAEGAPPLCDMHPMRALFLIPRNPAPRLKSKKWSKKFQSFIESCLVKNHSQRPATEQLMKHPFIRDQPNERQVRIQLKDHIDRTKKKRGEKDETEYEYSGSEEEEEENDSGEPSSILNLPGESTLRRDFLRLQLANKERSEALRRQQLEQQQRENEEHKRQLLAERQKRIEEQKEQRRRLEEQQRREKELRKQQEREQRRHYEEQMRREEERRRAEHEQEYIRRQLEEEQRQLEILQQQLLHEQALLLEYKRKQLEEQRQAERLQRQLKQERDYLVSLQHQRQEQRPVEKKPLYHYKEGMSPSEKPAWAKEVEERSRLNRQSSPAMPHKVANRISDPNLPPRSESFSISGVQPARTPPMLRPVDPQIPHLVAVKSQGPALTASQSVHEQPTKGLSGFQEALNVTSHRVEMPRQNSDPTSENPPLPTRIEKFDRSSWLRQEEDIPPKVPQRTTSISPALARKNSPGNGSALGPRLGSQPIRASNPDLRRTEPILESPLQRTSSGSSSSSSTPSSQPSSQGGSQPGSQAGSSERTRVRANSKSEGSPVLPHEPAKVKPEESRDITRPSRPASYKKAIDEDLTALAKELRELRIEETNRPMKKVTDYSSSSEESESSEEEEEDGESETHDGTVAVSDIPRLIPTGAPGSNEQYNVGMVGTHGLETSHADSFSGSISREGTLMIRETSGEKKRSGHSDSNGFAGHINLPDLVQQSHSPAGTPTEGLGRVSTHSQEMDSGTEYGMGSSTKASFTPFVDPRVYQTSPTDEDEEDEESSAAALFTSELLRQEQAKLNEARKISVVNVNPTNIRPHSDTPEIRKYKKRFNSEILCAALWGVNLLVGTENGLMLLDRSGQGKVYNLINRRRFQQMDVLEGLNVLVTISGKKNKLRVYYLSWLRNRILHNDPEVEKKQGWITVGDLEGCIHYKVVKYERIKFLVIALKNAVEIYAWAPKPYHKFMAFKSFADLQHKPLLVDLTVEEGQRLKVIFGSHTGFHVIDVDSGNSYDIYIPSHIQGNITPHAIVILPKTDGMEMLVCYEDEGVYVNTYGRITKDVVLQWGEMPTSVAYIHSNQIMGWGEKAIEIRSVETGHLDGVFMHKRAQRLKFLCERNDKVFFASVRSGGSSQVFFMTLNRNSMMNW
Sequence of Ribosomal protein S6 kinase alpha-4 (O75676 whole entry): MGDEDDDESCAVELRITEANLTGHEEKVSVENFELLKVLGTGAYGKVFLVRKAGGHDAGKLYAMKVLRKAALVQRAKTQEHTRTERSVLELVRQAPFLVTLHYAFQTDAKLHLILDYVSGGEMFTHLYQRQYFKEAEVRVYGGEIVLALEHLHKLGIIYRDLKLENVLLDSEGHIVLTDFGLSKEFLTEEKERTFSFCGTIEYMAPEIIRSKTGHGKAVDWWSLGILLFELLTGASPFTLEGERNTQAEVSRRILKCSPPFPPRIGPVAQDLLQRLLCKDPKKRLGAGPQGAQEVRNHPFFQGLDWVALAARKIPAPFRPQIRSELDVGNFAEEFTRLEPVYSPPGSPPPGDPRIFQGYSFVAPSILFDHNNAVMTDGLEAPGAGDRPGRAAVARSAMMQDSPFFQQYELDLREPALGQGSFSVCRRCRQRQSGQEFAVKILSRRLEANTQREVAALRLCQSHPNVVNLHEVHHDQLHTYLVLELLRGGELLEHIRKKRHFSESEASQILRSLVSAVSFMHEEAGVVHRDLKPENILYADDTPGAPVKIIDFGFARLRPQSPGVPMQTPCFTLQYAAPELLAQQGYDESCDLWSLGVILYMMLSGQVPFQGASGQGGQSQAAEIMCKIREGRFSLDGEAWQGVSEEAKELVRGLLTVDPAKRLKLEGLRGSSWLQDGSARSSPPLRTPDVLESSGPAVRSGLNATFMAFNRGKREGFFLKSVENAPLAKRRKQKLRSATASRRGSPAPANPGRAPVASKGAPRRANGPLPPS
Sequence of Deoxycytidine kinase (P27707 whole entry): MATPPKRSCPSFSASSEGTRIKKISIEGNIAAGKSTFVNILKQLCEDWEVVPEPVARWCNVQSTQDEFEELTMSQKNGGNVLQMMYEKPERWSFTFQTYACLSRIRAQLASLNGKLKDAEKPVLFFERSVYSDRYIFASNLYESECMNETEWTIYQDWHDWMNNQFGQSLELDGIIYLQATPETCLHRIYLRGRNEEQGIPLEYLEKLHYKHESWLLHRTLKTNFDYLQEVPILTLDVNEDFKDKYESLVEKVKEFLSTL

| Kd [1] | Kd [2] | Kd [3] | Kd [4] | Kd [5] | Kd [6] | Kd [7] | Kd [8] | Kd [9] | Kd [10] | Kd [12] | Kd [13] | Kd [14] | Kd [15] | Kd [16] | Kd [17] | Kd [18] | Kd [19] | Kd [20] | SMILES | Kd [11] |
| --- | --- | --- | --- | --- | --- | --- | --- | --- | --- | --- | --- | --- | --- | --- | --- | --- | --- | --- | --- | --- |
| > 30 µM (inactive) | > 30 µM (inactive) | > 30 µM (inactive) | > 30 µM (inactive) | > 30 µM (inactive) | > 30 µM (inactive) | > 30 µM (inactive) | > 30 µM (inactive) | > 30 µM (inactive) | 20.9 µM (active) | > 30 µM (inactive) | > 30 µM (inactive) | > 30 µM (inactive) | > 30 µM (inactive) | > 30 µM (inactive) | > 30 µM (inactive) | > 30 µM (inactive) | > 30 µM (inactive) | – | C[C@@H](Oc1cc(C(=O)Nc2ccc(C(=O)N3CCN(C)CC3)cc2)nnc1N)c1c(Cl)ccc(F)c1Cl | > 30 µM (inactive) |
| > 30 µM (inactive) | > 30 µM (inactive) | > 30 µM (inactive) | > 30 µM (inactive) | > 30 µM (inactive) | > 30 µM (inactive) | > 30 µM (inactive) | > 30 µM (inactive) | > 30 µM (inactive) | > 30 µM (inactive) | > 30 µM (inactive) | > 30 µM (inactive) | > 30 µM (inactive) | > 30 µM (inactive) | > 30 µM (inactive) | > 30 µM (inactive) | > 30 µM (inactive) | > 30 µM (inactive) | – | C[C@H]1CNCCCN1S(=O)(=O)c1cccc2cncc(F)c12 | – |
| 1.48 µM (active) | > 30 µM (inactive) | > 30 µM (inactive) | > 30 µM (inactive) | > 30 µM (inactive) | > 30 µM (inactive) | 2.51 µM (active) | > 30 µM (inactive) | > 30 µM (inactive) | 1.36 µM (active) | > 30 µM (inactive) | – | > 30 µM (inactive) | 1.46 µM (active) | > 30 µM (inactive) | > 30 µM (inactive) | 1.55 µM (active) | > 30 µM (inactive) | – | CCNC(=O)C#Cc1ccc2c(c1)NC(=O)/C2=C(\Nc1ccc(CN(C)C)cc1)c1ccccc1 | > 30 µM (inactive) |
| > 30 µM (inactive) | > 30 µM (inactive) | > 30 µM (inactive) | 0.152 µM (active) | > 30 µM (inactive) | 6.17 µM | – | > 30 µM (inactive) | > 30 µM (inactive) | > 30 µM (inactive) | > 30 µM (inactive) | > 30 µM (inactive) | 0.178 µM (active) | > 30 µM (inactive) | > 30 µM (inactive) | > 30 µM (inactive) | > 30 µM (inactive) | > 30 µM (inactive) | > 30 µM (inactive) | Cc1nc2cc(-c3nn(C(C)C)c4ncnc(N)c34)ccc2o1 | > 30 µM (inactive) |
| > 30 µM (inactive) | > 30 µM (inactive) | > 30 µM (inactive) | > 30 µM (inactive) | > 30 µM (inactive) | > 30 µM (inactive) | 0.04 µM (active) | > 30 µM (inactive) | > 30 µM (inactive) | > 30 µM (inactive) | > 30 µM (inactive) | > 30 µM (inactive) | > 30 µM (inactive) | > 30 µM (inactive) | > 30 µM (inactive) | > 30 µM (inactive) | > 30 µM (inactive) | > 30 µM (inactive) | – | COCc1c(-c2ccc(NC(=O)Nc3cc(C(F)(F)F)ccc3F)c(F)c2)c2c(N)ncnn2c1CN1CCOCC1 | > 30 µM (inactive) |
| 1.08 µM (active) | > 30 µM (inactive) | – | > 30 µM (inactive) | > 30 µM (inactive) | > 30 µM (inactive) | – | > 30 µM (inactive) | > 30 µM (inactive) | – | > 30 µM (inactive) | > 30 µM (inactive) | > 30 µM (inactive) | – | 0.117 µM (active) | 0.801 µM (active) | > 30 µM (inactive) | – | > 30 µM (inactive) | O=C(Nc1c[nH]nc1-c1nc2cc(CN3CCOCC3)ccc2[nH]1)NC1CC1 [AT-9283] | > 30 µM (inactive) |
| > 30 µM (inactive) | – | > 30 µM (inactive) | > 30 µM (inactive) | > 30 µM (inactive) | > 30 µM (inactive) | > 30 µM (inactive) | > 30 µM (inactive) | > 30 µM (inactive) | > 30 µM (inactive) | > 30 µM (inactive) | > 30 µM (inactive) | > 30 µM (inactive) | > 30 µM (inactive) | > 30 µM (inactive) | > 30 µM (inactive) | > 30 µM (inactive) | > 30 µM (inactive) | – | Cn1ncc(Cl)c1-c1cc(C(=O)N[C@H](CN)Cc2ccc(F)c(F)c2)oc1Cl [UPROSERTIB] | > 30 µM (inactive) |
| > 30 µM (inactive) | > 30 µM (inactive) | > 30 µM (inactive) | > 30 µM (inactive) | > 30 µM (inactive) | > 30 µM (inactive) | > 30 µM (inactive) | > 30 µM (inactive) | > 30 µM (inactive) | > 30 µM (inactive) | > 30 µM (inactive) | > 30 µM (inactive) | > 30 µM (inactive) | > 30 µM (inactive) | – | > 30 µM (inactive) | > 30 µM (inactive) | > 30 µM (inactive) | 0.09 µM (active) | C[C@@H](N)c1ccc(C(=O)Nc2ccnc3[nH]ccc23)cc1 [Y-39983] | > 30 µM (inactive) |

| SMILES | Kd [1] | Kd [2] | Kd [3] | Kd [4] | Kd [5] | Kd [6] | Kd [7] | Kd [8] | Kd [9] | Kd [10] | Kd [12] | Kd [13] | Kd [14] | Kd [15] | Kd [16] | Kd [17] | Kd [18] | Kd [19] | Kd [20] | Kd [11] |
| --- | --- | --- | --- | --- | --- | --- | --- | --- | --- | --- | --- | --- | --- | --- | --- | --- | --- | --- | --- | --- |
| CC(=O)c1cnc2ccc(-c3cc(Cl)c(O)c(Cl)c3)nc2c1N[C@H]1CC[C@H](CN(C)C)CC1 | – | – | > 30 µM (inactive) | – | 0.665 µM | > 30 µM (inactive) | > 30 µM (inactive) | > 30 µM (inactive) | – | 0.071 µM (active) | > 30 µM (inactive) | > 30 µM (inactive) | 0.005 µM (active) | 0.111 µM (active) | > 30 µM (inactive) | – | > 30 µM (inactive) | > 30 µM (inactive) | – | 0.09 µM (active) |
| O=C(Nc1nc2cccc(-c3ccc(CN4CCS(=O)(=O)CC4)cc3)n2n1)C1CC1 [FILGOTINIB] | > 30 µM (inactive) | > 30 µM (inactive) | > 30 µM (inactive) | > 30 µM (inactive) | > 30 µM (inactive) | > 30 µM (inactive) | > 30 µM (inactive) | > 30 µM (inactive) | > 30 µM (inactive) | > 30 µM (inactive) | > 30 µM (inactive) | > 30 µM (inactive) | > 30 µM (inactive) | > 30 µM (inactive) | > 30 µM (inactive) | > 30 µM (inactive) | > 30 µM (inactive) | – | > 30 µM (inactive) | > 30 µM (inactive) |
| CNC(=O)c1cc(Oc2ccc(NC(=O)Nc3cc(C(C)(C)C)nn3-c3ccc4ncccc4c3)c(F)c2)ccn1 [REBASTINIB] | 0.135 µM (active) | > 30 µM (inactive) | 0.41 µM (active) | > 30 µM (inactive) | > 30 µM (inactive) | > 30 µM (inactive) | – | > 30 µM (inactive) | > 30 µM (inactive) | – | – | > 30 µM (inactive) | > 30 µM (inactive) | 12.8 µM | > 30 µM (inactive) | 1.88 µM (active) | > 30 µM (inactive) | > 30 µM (inactive) | > 30 µM (inactive) | 0.276 µM (active) |
